Results taken from US10183015B2, “Heterocyclic compounds and methods of use” (Medivation Technologies LLC, priority 2015, dated 2019).
Where “and” joins values, the source holds several entries; their conditions need not be identical. Equal values may be shown once.

Tests used:
ob/ob mice = assay: ob/ob mice: plasma triglycerides, non-esterified fatty acids, total cholesterol, insulin; format: in vivo, mouse; conditions: 8 weeks
Protocol: Groups of mice were either untreated (group 1) or treated for 8 weeks with vehicle (group 2), or with Compound #37 at 5 mg/kg (group 3), 10 mg/kg (group 4), or 20 mg/kg (group 5). Treatment was daily by oral gavage in vehicle (20% HPβCD). Values are presented as mean±standard error of the mean (sem). A t test was performed to compare the untreated group and the vehicle group. Then Compound #37-treated groups were compared to the vehicle-treated group with a 1-way ANOVA+Dunnett's post-test. […] For each test, a p<0.05 was considered significant. Of note, animal #39, group 1 was excluded from the statistical analysis, due to low values for all parameters measured. Some other values were considered as out-liners and excluded from the statistical analysis when the value was far below the mean minus 2 SD. Excluded values are marked with an asterisk in Tables 21-23.

leptin = assay: DIN mouse model: plasma leptin; format: in vivo; conditions: for plasma leptin day 70: day 70, 20 mg/kg
Protocol: Male C57Bl/6J mice (8 weeks old) were housed in enriched ventilated cages (31×12.5×12.7 cm) throughout the experimental phase. Animals' cages litters were changed at least once a week. Animal were housed 5 per cage on inverted 12-hour light cycle (at 09:00 am lights off), 22±2° C. and 55±10% relative humidity. The acclimation period was 20 days. During the acclimation period, all mice were fed a standard diet (RM1 (E) 801492, SDS) and tap water ad libitum. After the acclimation period, mice were fed with the DIN diet (60% fat, cholesterol enriched) and fructose-enriched tap water ad libitum until the end of the experiment.
At 6 weeks of diet, mice were 4-hour fasted (09:00 am to 1:00 pm) and blood (150 μl/EDTA) was collected at 01:00 pm by retro-orbital bleeding under isoflurane anesthesia. Mice were then allocated in 2 homogenous groups (n=12/group) according to their plasma levels of ALT (average levels: 685U/L), AST (average levels: 627U/L) and HOMA-IR index (average value: 4.7), into 2 homogenous groups (see values at day 0 in Tables 15A and 15B ALT/AST and Tables 16A and 16B for HOMA-IR). Mice were then treated once daily by oral gavage with vehicle (Group 1) or Compound #37 at 20 mg/kg (Group 2) for 70 days.
To investigate whether Compound #37 improves pre-existing steatosis/NASH pathology, a study was conducted using a 16-week diet-induced NASH mouse model. In this model, mice develop steatosis that progresses with inflammation and fibrosis that mimic many of the observed pathologies in human nonalcoholic fatty liver disease (NAFLD) and NASH (Hebbard & George, 2010). For 6 weeks, mice were fed a high-fat, high-cholesterol diet and provided drinking water containing fructose to induce liver pathology (Charlton et al, 2011). […]

HMGCoA = assay: Short-term Paigen-diet NASH mouse model: hepatic HMGCoA (HMG-CoAR) gene expression (RT-qPCR); format: in vivo; conditions: liver; for DDct: HMGCoA Dct relative to vehicle mean; for Dct: HMGCoA minus 18S; for 2DDct: HMGCoA relative expression to vehicle group, normalized to 18S; for HMGCoA: raw RT-qPCR value
Protocol: To investigate whether Compound #37 prevents the development of pathology associated with NASH and steatosis in an acute exploratory disease model, a study was conducted using a diet-induced acute liver steatosis model in mice. As described below, in this study, C57BL/6J mice were initiated on the Paigen diet and simultaneously treated with Compound #37 (5, 20, and 40 mg/kg/day) or vehicle control (20% HPβCD 10 mL/kg/day) by oral gavage for 21 days.
After acclimation, 8-week old male C57Bl/6J mice (Charles River) weighing about 25 g were randomized in 4 groups according their body weight and treated once daily around noon by oral gavage with vehicle, or Compound #37 at various for 21 days as follows: Group 1: vehicle-20% (2-hydroxypropyl)-β-cyclodextrin (HP-β-CD) (n=10); Group 2: Compound #37, 5 mg/kg (n=10) Group 3: Compound #37, 20 mg/kg (n=10) Group 4: Compound #37, 40 mg/kg (n=10). During the treatment period, body weight and food intake (measured over 24h) were measured 3 times per week and once a week, respectively. During the acclimation, all mice were fed a standard diet (Special Diets Services RM1 (E), product no. 801492) and tap water ad libitum. After the acclimation period, mice were fed until the end of the experiment with a 60% high fat Paigen diet (60 kcal % fat, 1.25% cholesterol, and 0.5% cholate; D11061901, Research Diet) and tap water ad libitum.
Gene expression analysis. Hepatic expression levels of genes involved in lipid metabolism (FAS, SREBP1, ACC1, SCD1), cholesterol metabolism (HMG-CoAR, LDLR), SREBP proteolysis (SCAP, INSIG1), ER stress (PERK), oxidative stress (NRF2), inflammation (MCP-1), and fibrosis (collagen 1α1) were quantified by RTqPCR. Expression level was normalized to 18S gene expression and relative expression to vehicle group was calculated with the […] method.

[1] = 5 mg/kg daily oral gavage, group mean
[2] = 5 mg/kg daily oral gavage, individual animal values, 5 mg/kg
[3] = 10 mg/kg daily oral gavage, group mean
[4] = 10 mg/kg daily oral gavage, individual animal values, 10 mg/kg
[5] = 20 mg/kg daily oral gavage, group mean
[6] = 20 mg/kg daily oral gavage, individual animal values, 20 mg/kg
[7] = Compound #37 5 mg/kg, group mean, n=10
[8] = Compound #37 5 mg/kg, individual animals, 5 mg/kg
[9] = Compound #37 20 mg/kg, group mean, n=6
[10] = Compound #37 20 mg/kg, individual animals, 20 mg/kg

CC(C)Cc1cc(-c2nc(-c3ccc(NS(=O)(=O)C(F)(F)F)cc3Cl)cs2)ccn1 [Compound 37, N-(3-chloro-4-(2-(2-isobutylpyridin-4-yl)thiazol-4-yl)phenyl)-1,1,1-trifluoromethanesulfonamide]
plasma insulin (ob/ob mice; [1]): 274.1 μU/mL | plasma non-esterified fatty acids (ob/ob mice; [1]): 0.7 mM | plasma total cholesterol (ob/ob mice; [1]): 1.8 g/L | plasma triglycerides (ob/ob mice; [1]): 1.6 g/L | plasma insulin (ob/ob mice; 5 mg/kg daily oral gavage, individual animal values (* = excluded from statistical analysis), 5 mg/kg): 198.7 μU/mL and 262.7 μU/mL and 181.1 μU/mL and 250.5 μU/mL and 118.7 μU/mL and 394.6 μU/mL and 24.6* μU/mL and 374.6 μU/mL and 512.6 μU/mL and 173.1 μU/mL | plasma non-esterified fatty acids (ob/ob mice; [2]): 1.028 mM and 0.77 mM and 0.616 mM and 0.552 mM and 0.68 mM (2×) and 1.092 mM and 0.783 mM and 0.655 mM and 0.539 mM | plasma total cholesterol (ob/ob mice; [2]): 1.587 g/L and 1.903 g/L and 1.916 g/L and 1.853 g/L and 2.017 g/L and 1.537 g/L and 2.08 g/L and 1.625 g/L and 1.347 g/L and 1.638 g/L | plasma triglycerides (ob/ob mice; [2]): 1.283 g/L and 1.152 g/L and 1.038 g/L and 1.397 g/L (2×) and 1.593 g/L and 1.201 g/L and 1.609 g/L and 2.408 g/L and 2.504 g/L | plasma insulin (ob/ob mice; [3]): 357.3 μU/mL | plasma non-esterified fatty acids (ob/ob mice; [3]): 0.7 mM | plasma total cholesterol (ob/ob mice; [3]): 1.7 g/L | plasma triglycerides (ob/ob mice; [3]): 1.3 g/L | plasma insulin (ob/ob mice; [4]): 123.8 μU/mL and 457.7 μU/mL and 81.9 μU/mL and 949.0 μU/mL and 153.3 μU/mL and 62.6 μU/mL and 508.2 μU/mL and 904.4 μU/mL and 194.4 μU/mL and 137.5 μU/mL | plasma non-esterified fatty acids (ob/ob mice; [4]): 1.009 mM and 0.474 mM and 0.828 mM and 0.7 mM and 0.564 mM and 0.951 mM and 0.738 mM and 0.661 mM and 0.809 mM and 0.307 mM | plasma total cholesterol (ob/ob mice; [4]): 1.587 g/L and 1.865 g/L (2×) and 1.891 g/L (2×) and 1.827 g/L (2×) and 1.234 g/L and 1.651 g/L and 1.183 g/L | plasma triglycerides (ob/ob mice; [4]): 0.94 g/L and 1.12 g/L and 0.875 g/L and 1.218 g/L and 1.528 g/L and 1.299 g/L and 1.968 g/L and 1.381 g/L and 1.593 g/L and 0.777 g/L | plasma insulin (ob/ob mice; [5]): 444.1 μU/mL | plasma non-esterified fatty acids (ob/ob mice; [5]): 0.5 mM | plasma total cholesterol (ob/ob mice; [5]): 1.5 g/L | plasma triglycerides (ob/ob mice; [5]): 1.5 g/L | plasma insulin (ob/ob mice; [6]): 447.3 μU/mL and 10.5 μU/mL and 730.1 μU/mL and 505.0 μU/mL and 254.3 μU/mL and 881.0 μU/mL and 810.7 μU/mL and 483.7 μU/mL and 62.6 μU/mL and 256.2 μU/mL | plasma non-esterified fatty acids (ob/ob mice; [6]): 0.429 mM and 0.642 mM and 0.494 mM and 0.481 mM and 0.423 mM (2×) and 0.513 mM and 0.397 mM and 0.687 mM and 0.597 mM | plasma total cholesterol (ob/ob mice; [6]): 1.234 g/L and 0.893 g/L and 1.499 g/L and 1.714 g/L and 1.663 g/L (2×) and 1.625 g/L and 1.587 g/L and 1.36 g/L and 1.272 g/L | plasma triglycerides (ob/ob mice; [6]): 0.875 g/L and 1.886 g/L and 1.511 g/L (2×) and 1.642 g/L and 1.854 g/L and 1.283 g/L and 1.308 g/L and 1.381 g/L and 1.968 g/L | plasma leptin reduction (leptin; 20 mg/kg, end of the treatment period, vs. vehicle): 38% | plasma leptin day 70 (leptin; group mean, n 11): 265 pg/mL | plasma leptin day 70 (leptin; individual animals): 454 pg/mL and 330 pg/mL and 202 pg/mL and 280 pg/mL and 341 pg/mL and 144 pg/mL and 294 pg/mL and 46 pg/mL and 269 pg/mL and 374 pg/mL and 187 pg/mL | DDct (HMGCoA; [7]): 0.21 | DDct (HMGCoA; [8]): −0.39 and 0.32 and 0.09 and −0.08 and 0.87 and 0.63 and −0.03 and 0.10 and 0.35 and 0.20 | DDct (HMGCoA; [9]): 0.33 | DDct (HMGCoA; [10]): 0.57 and 1.06 and 0.58 and −0.40 and 0.77 and −0.64 | Dct (HMGCoA; [7]): 13.1 | Dct (HMGCoA; [8]): 12.48 and 13.19 and 12.96 and 12.79 and 13.74 and 13.5 and 12.84 and 12.97 and 13.22 and 13.07 | Dct (HMGCoA; [9]): 13.2 | Dct (HMGCoA; [10]): 13.44 and 13.93 and 13.45 and 12.47 and 13.64 and 12.23 | 2DDct (HMGCoA; [7]): 0.89 | 2DDct (HMGCoA; [8]): 1.31 and 0.80 and 0.94 and 1.05 and 0.55 and 0.64 and 1.02 and 0.93 and 0.78 and 0.87 | 2DDct (HMGCoA; [9]): 0.88 | 2DDct (HMGCoA; [10]): 0.67 (2×) and 0.48 and 1.32 and 0.58 and 1.55 | HMGCoA (HMGCoA; [7]): 25.3 | HMGCoA (HMGCoA; [8]): 25.94 and 26.3 and 24.57 and 26.14 and 25.77 and 26.85 and 24.44 and 24.76 and 24.36 and 24.19 | HMGCoA (HMGCoA; [9]): 25.4 | HMGCoA (HMGCoA; [10]): 26.35 and 26.22 and 25.65 and 25.5 and 25.13 and 23.49
